# From ChEMBL document CHEMBL5291721, “A preclinical secondary pharmacology resource illuminates target-adverse drug reaction associations of marketed drugs” (Nat Commun, 2023)
# What was measured:
# [1] = molecular target: T1, B2 bradykinin receptor (Homo sapiens, UniProt P30411)
# T1 sequence (P30411 whole entry): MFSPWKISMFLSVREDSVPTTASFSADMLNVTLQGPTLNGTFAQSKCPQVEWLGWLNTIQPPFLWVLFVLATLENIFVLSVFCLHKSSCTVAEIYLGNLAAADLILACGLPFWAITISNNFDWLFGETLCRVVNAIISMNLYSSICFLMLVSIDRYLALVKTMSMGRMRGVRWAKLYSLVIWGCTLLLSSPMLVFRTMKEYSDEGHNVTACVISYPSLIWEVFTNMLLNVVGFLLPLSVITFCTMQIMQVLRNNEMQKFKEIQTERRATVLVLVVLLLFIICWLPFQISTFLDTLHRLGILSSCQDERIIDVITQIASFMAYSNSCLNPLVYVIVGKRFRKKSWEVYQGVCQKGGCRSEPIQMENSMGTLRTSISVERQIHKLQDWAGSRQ
# [2] = molecular target: T2, Type-1 angiotensin II receptor (Homo sapiens, UniProt P30556)
# T2 sequence (P30556 whole entry): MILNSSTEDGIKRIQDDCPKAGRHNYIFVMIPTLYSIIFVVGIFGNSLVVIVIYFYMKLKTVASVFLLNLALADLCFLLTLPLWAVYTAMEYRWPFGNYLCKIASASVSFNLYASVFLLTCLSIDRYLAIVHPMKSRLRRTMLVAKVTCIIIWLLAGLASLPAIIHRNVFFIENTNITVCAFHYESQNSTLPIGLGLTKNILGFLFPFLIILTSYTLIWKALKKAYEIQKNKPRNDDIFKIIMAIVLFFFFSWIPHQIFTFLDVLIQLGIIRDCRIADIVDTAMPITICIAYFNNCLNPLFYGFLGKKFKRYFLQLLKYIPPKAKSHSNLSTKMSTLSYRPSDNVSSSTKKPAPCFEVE
# [3] = molecular target: T3, Prostaglandin G/H synthase 1 (Rattus norvegicus, UniProt Q63921); type: functional
# T3 sequence (Q63921 whole entry): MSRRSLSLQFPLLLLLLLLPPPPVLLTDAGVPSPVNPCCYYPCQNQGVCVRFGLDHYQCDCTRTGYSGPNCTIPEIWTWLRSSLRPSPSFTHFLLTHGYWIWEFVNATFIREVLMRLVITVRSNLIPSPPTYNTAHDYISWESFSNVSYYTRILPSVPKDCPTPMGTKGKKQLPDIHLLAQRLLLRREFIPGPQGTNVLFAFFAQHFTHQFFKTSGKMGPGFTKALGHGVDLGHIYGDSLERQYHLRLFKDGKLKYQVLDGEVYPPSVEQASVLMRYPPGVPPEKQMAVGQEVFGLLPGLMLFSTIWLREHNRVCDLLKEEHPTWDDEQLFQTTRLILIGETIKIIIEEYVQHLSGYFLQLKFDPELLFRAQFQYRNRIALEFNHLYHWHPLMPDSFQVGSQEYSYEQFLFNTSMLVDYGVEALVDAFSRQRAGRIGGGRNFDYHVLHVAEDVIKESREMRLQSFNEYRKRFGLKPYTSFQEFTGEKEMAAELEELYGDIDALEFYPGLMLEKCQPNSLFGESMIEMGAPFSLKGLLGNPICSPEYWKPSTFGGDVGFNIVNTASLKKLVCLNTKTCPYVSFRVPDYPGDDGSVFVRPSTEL
# [4] = molecular target: T4, 5-hydroxytryptamine receptor 1A (Homo sapiens, UniProt P08908); type: functional, cell-based
# T4 sequence (P08908 whole entry): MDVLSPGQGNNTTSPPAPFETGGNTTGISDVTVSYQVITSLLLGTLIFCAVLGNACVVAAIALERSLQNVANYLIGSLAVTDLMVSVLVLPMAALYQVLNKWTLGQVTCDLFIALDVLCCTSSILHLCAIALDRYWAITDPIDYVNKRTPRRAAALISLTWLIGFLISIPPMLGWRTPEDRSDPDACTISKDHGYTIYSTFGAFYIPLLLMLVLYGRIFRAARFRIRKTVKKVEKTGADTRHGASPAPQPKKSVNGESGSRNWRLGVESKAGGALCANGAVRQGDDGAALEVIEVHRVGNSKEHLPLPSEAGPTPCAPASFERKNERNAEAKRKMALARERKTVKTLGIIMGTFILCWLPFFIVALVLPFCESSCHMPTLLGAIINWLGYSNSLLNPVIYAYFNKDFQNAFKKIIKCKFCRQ
# [5] = molecular target: Histamine H2 receptor (Homo sapiens, UniProt P25021); type: functional, cell-based
# [6] = molecular target: 3',5'-cyclic-AMP phosphodiesterase 4D (Homo sapiens, UniProt Q08499); type: functional
# [7] = molecular target: Vasopressin V2 receptor (Homo sapiens, UniProt P30518)
# Also: assay procedure not described here.
# 3',5'-cyclic-AMP phosphodiesterase 4D, sequence (Q08499 whole entry): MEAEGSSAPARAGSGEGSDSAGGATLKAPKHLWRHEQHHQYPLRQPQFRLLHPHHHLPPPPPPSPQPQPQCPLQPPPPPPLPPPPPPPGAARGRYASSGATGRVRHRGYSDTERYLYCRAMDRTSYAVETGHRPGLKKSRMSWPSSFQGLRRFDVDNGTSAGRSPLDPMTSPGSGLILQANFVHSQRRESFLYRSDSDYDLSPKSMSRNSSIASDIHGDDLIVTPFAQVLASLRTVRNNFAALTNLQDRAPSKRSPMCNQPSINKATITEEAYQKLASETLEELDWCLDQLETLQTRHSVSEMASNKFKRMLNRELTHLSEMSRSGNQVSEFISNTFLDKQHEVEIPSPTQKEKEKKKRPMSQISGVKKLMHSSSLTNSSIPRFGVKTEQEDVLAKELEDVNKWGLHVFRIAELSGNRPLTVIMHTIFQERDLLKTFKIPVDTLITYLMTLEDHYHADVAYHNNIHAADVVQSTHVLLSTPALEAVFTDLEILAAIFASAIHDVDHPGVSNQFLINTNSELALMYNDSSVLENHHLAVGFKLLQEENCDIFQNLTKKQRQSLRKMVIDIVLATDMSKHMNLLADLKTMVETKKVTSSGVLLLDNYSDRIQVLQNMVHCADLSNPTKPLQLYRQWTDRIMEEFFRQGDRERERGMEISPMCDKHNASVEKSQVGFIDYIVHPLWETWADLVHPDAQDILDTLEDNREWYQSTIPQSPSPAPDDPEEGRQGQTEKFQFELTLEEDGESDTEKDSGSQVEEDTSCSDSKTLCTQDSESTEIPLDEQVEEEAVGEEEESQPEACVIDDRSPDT
# Histamine H2 receptor, sequence (P25021 whole entry): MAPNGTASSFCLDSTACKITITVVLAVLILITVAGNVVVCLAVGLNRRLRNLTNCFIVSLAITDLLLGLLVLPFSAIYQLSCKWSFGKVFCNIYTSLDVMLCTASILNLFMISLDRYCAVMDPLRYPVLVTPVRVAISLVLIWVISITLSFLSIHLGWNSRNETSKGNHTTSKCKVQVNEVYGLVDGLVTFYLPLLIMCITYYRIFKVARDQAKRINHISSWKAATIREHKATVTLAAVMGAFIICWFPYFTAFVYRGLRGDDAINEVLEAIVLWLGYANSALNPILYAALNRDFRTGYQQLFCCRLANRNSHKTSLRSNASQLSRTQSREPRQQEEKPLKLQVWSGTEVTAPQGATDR
# Vasopressin V2 receptor, sequence (P30518 whole entry): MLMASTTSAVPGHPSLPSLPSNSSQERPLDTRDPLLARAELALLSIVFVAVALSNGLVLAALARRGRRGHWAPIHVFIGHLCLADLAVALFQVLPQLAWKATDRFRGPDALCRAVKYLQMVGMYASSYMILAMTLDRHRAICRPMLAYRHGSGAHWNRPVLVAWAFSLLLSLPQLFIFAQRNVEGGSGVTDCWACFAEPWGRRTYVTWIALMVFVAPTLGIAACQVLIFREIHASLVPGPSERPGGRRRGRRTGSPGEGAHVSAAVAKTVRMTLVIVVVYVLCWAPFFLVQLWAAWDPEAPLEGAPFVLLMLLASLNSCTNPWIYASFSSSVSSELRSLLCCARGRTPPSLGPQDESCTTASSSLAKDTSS
SMILES,AC50 [1],AC50 [2],AC50 [3],AC50 [4],AC50 [5],AC50 [6],AC50 [7]
C[C@]12CC[C@H](O)CC1=CC[C@@H]1[C@@H]2CC[C@]2(C)C(c3cccnc3)=CC[C@@H]12 [ABIRATERONE],> 30 µM,> 30 µM,> 30 µM,> 10 µM,> 10 µM,> 30 µM,> 30 µM
CC(=O)OCC[N+](C)(C)C [ACETYLCHOLINE],> 30 µM,> 30 µM,> 30 µM,0.15 µM,> 10 µM,> 30 µM,> 30 µM
CN(C)C(=O)Oc1cc(OC(=O)N(C)C)cc(C(O)CNC(C)(C)C)c1 (stereo not drawn) [BAMBUTEROL],> 30 µM,> 30 µM,> 30 µM,,,,> 30 µM
C[C@H]1C[C@H]2[C@@H]3CCC4=CC(=O)C=C[C@]4(C)[C@@]3(Cl)[C@@H](O)C[C@]2(C)[C@@]1(O)C(=O)CO [BECLOMETHASONE],> 30 µM,> 30 µM,> 30 µM,,,> 30 µM,> 30 µM
CO[C@@]1(NC(=O)CSCC#N)C(=O)N2C(C(=O)O)=C(CSc3nnnn3C)CS[C@@H]21 [CEFMETAZOLE],,,,> 30 µM,> 30 µM,> 30 µM,
CO/N=C(\C(=O)N[C@@H]1C(=O)N2C(C(=O)[O-])=C(C[n+]3cccc4c3CCC4)CS[C@H]12)c1csc(N)n1 [CEFPIROME],,,,> 30 µM,> 30 µM,> 30 µM,
NS(=O)(=O)c1cc(C2(O)NC(=O)c3ccccc32)ccc1Cl (stereo not drawn) [CHLORTHALIDONE],> 10 µM,> 10 µM,> 10 µM,> 10 µM,> 10 µM,> 30 µM,> 10 µM
CC[C@H]1OC(=O)[C@H](C)[C@@H](O[C@H]2C[C@@](C)(OC)[C@@H](O)[C@H](C)O2)[C@H](C)[C@@H](O[C@@H]2O[C@H](C)C[C@H](N(C)C)[C@H]2O)[C@](C)(OC)C[C@@H](C)C(=O)[C@H](C)[C@@H](O)[C@]1(C)O [CLARITHROMYCIN],> 30 µM,> 30 µM,> 30 µM,> 30 µM,> 30 µM,> 30 µM,> 30 µM
C[C@@H]1CCC[C@H](C)N1NC(=O)c1ccc(Cl)c(S(N)(=O)=O)c1 [CLOPAMIDE],> 30 µM,> 30 µM,> 30 µM,> 30 µM,> 30 µM,> 30 µM,> 30 µM
COc1ccc2c(c1)[C@]13CCCC[C@@H]1[C@H](C2)N(C)CC3 [DEXTROMETHORPHAN],> 30 µM,> 30 µM,> 30 µM,> 10 µM,> 10 µM,> 30 µM,> 30 µM
O=c1oc2ccccc2c(O)c1Cc1c(O)c2ccccc2oc1=O [DICUMAROL],> 10 µM,> 10 µM,> 30 µM,> 10 µM,> 10 µM,6.3 µM,> 10 µM
CCn1cc(C(=O)O)c(=O)c2cc(F)c(N3CCNCC3)nc21 [ENOXACIN],> 30 µM,> 30 µM,> 30 µM,> 10 µM,> 10 µM,> 10 µM,> 30 µM
O=C(O)CSCC(=O)NC1CCSC1=O (stereo not drawn) [ERDOSTEINE],> 30 µM,> 30 µM,> 30 µM,> 30 µM,> 30 µM,> 30 µM,> 30 µM
COc1cccc(N(C)C(=S)Oc2ccc3c(c2)CCCC3)n1 [LIRANAFTATE],> 30 µM,> 30 µM,> 30 µM,> 30 µM,> 30 µM,> 30 µM,> 30 µM
C#C[C@]1(O)CC[C@H]2[C@@H]3CCc4cc(OC)ccc4[C@H]3CC[C@@]21C [MESTRANOL],> 10 µM,> 10 µM,> 10 µM,> 10 µM,> 30 µM,> 30 µM,> 10 µM
N=C(N)c1ccc2cc(OC(=O)c3ccc(N=C(N)N)cc3)ccc2c1 [NAFAMOSTAT],> 30 µM,> 30 µM,> 30 µM,> 30 µM,> 30 µM,> 30 µM,> 30 µM
CNC(=O)Oc1ccc2c(c1)[C@]1(C)CCN(C)[C@@H]1N2C [PHYSOSTIGMINE],> 30 µM,> 30 µM,> 30 µM,> 30 µM,> 30 µM,> 30 µM,> 30 µM
O=C(O)c1cc(O)c2c3nc4ccccc4oc-3cc(=O)c2n1 [PIRENOXINE],> 30 µM,> 30 µM,> 30 µM,> 30 µM,> 30 µM,> 30 µM,> 30 µM
NS(=O)(=O)c1cc(C(=O)O)cc(N2CCCC2)c1Oc1ccccc1 [PIRETANIDE],> 30 µM,> 30 µM,> 30 µM,> 30 µM,> 30 µM,> 30 µM,> 30 µM
CNCCCC1c2ccccc2C=Cc2ccccc21 [PROTRIPTYLINE],> 10 µM,> 10 µM,> 10 µM,> 10 µM,> 10 µM,> 30 µM,> 10 µM
COCCCOc1ccnc(C[S+]([O-])c2nc3ccccc3[nH]2)c1C (stereo not drawn) [RABEPRAZOLE],> 30 µM,> 30 µM,> 30 µM,> 10 µM,> 10 µM,8 µM,> 30 µM
CC(C)=CCOc1ccc(/C=C/C(=O)c2ccc(OCC=C(C)C)cc2OCC(=O)O)cc1 [SOFALCONE],> 3 µM,7.5 µM,> 30 µM,> 30 µM,> 30 µM,> 30 µM,> 30 µM
O=C(CCCN1CCC2(CC1)C(=O)NCN2c1ccccc1)c1ccc(F)cc1 [SPIPERONE],> 30 µM,> 30 µM,> 30 µM,,> 30 µM,> 30 µM,> 30 µM
CCSc1ccc2c(c1)N(CCCN1CCN(C)CC1)c1ccccc1S2 [THIETHYLPERAZINE],,,> 30 µM,,,16 µM,
CN(C)c1cc(NC(=O)CNC(C)(C)C)c(O)c2c1C[C@H]1C[C@H]3[C@H](N(C)C)C(O)=C(C(N)=O)C(=O)[C@@]3(O)C(O)=C1C2=O [TIGECYCLINE],> 30 µM,> 30 µM,0.16 µM,> 30 µM,> 30 µM,> 30 µM,> 30 µM
OCCN1CCN(CC/C=C2/c3ccccc3Sc3ccc(Cl)cc32)CC1 [ZUCLOPENTHIXOL],> 10 µM,> 30 µM,> 10 µM,> 10 µM,> 10 µM,> 10 µM,> 10 µM
